Data as given in patent publication US20260000710A1, “Novel Treatments for Cardiovascular Related Disease” (priority 2022, published 2026).
Blank lines part the entries; values can stand above or below the molecule they belong to.

Tests used:
[1] = test system: purified MHC molecules (28 common HLA DP, DQ and DR alleles); experiment: HLA class II competition binding assay (inhibition of radiolabeled ligand binding); parameters: species or system human; details: alleles bound at <1000 nM threshold
Method: Peptides predicted to bind most (≥75%) of the alleles, were experimentally verified in HLA-II binding assays^31. For each peptide, the number of alleles that bound at a <1000 nM threshold level was tabulated. Top 20 promiscuous binders (bind >50% of reference alleles) were selected for further study (FIG. 9A, Table 2).
Next, the capacity of these peptides to bind 28 common HLA alleles (27 from the reference set plus DPB1*03:01) was determined experimentally using classical competition assays based on the inhibition of binding of high affinity radiolabeled ligands to purified MHC molecules^3. Under the conditions utilized, where [radiolabeled peptide] is <[MHC], and [MHC]<[inhibitor peptide], the measured IC50 values, defined as the concentrations of inhibitor peptide that inhibits the binding of the radiolabeled ligand by 50%, are reasonable estimates of true Kd values.

PBMCs = experiment: IFNγ ELISpot after 14-day in vitro expansion and re-stimulation; assay type: cell-based, human
Method: To do this, the inventors used the optimized IFNγ ELISpot assay (FIG. 1A) because Th1 cytokine response to APOB peptides is most robust (FIG. 9D) and easily detectable in high-throughput screens. PBMCs from HLA-typed donors (demographics and HLA-II alleles in Tables 5, 6) were incubated with the APOB20 pool for 14 days with intermittent IL-2 feeding (schematic in FIG. 11A). […] Restimulation with the APOB20 pool and with PHA-L served as positive controls, and unstimulated cells were negative controls. For each donor, APOB peptide-specific restimulation conditions were run in triplicate wells and the average number of spot-forming cells (SFCs) per 10^6 PBMCs was calculated. To determine responder frequencies, a positive response was defined based on established criteria set for detection of responses to other autoantigenic epitopes^4. (1) ≥100 spot-forming cells per 10^6 PBMCs; (2) stimulation index ≥2 (3) p≤0.01 by Student's t-test, mean response in stimulated vs unstimulated replicate wells.
Expansion of antigen-specific T cells and Enzyme-linked immunospot (ELISpot) assay. For in vitro expansion, PBMCs were plated at a density of 2×10^6 cells/ml in 24-well plates and were cultured in the presence of APOB20 and CEFX-II peptide pools. […] Wells were imaged and spot-forming cells (SFCs) were quantified using the Zeiss KS or AID (Autoimmun Diagnostika) ELISpot readers. […]

[2] = test system: AIM+ and AIM− CD4+ T cells from peptide-expanded PBMCs; experiment: TCRβ CDR3 sequencing (immunoSEQ) of sorted AIM+ and AIM− CD4+ T cells; assay type: cell-based, human; details: for Log10 Odds Ratio: AIM+ vs AIM−;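 on all read-outs here: genomic DNA from sorted cells as template, amplification bias-controlled two-step multiplex PCR, APOB6 pool at 10 µg/ml per peptide, CD40 blocking antibody added before restimulation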
Method: To examine the clonotypic identities of autoreactive CD4^+ T cells, the hypervariable TCRβ DR3 region was sequenced using a DNA-based sequencing technique^42 (Adaptive Biotechnologies), which have been used to profile clonal populations of other self-antigen specific T cells^43. PBMCs from six HLA-typed donors (demographics and HLA-II alleles in Tables 5, 6) were expanded (14-days) and restimulated (24 h) with the APOB6 pool. To isolate viable responder and non-responder CD4^+ T cells from the same pool of stimulated PBMCs (schematic in FIG. 15A, gating strategy in FIG. 151B), the inventors used the AIM assay protocol (FIGS. 2A to 2D).
As a second control, unexpanded PBMCs (day 0 samples), sorted into naïve, central memory (TCM) and effector memory (TEM) CD4^+ T cells, were used (gating strategy in FIG. 15C). This allowed tracing the APOB6-specific AIM^+ T cell clones in naïve and memory T cell lineages. Genomic DNA, isolated from sorted AIM^− and AIM^+ Day 14 samples and naïve, TCM and TEM Day 0 samples from six donors, was used as the starting material for TCRVβ sequencing (schematic in FIG. 15A) using an optimized two-step, amplification bias-controlled multiplex-PCR-based approach^42,44 (immunoSEQ Human TCRB Assay, Adaptive Biotechnologies).
For isolation of APOB epitope-specific CD4^+ T cells, PBMCs were expanded with the APOB6pool (10 μg/ml per peptide). On Day 14, cultured cells were washed and re-stimulated with APOB6 (10 μg/ml) for 24 h (AIM assay protocol). 1 μg/ml of CD40 blocking antibody was added 15 min before stimulation. At the end of the stimulation period, cells were washed with FACS buffer (PBS w/o Ca/Mg, 2% FCS). Day 14 (APOB6 expanded and restimulated) and Day 0 (ex vivo samples with no in vitro stimulation) PBMC samples from six donors were resuspended in a staining master mix containing anti-human Fc-Block (Biolegend), fixable viability dye and antibodies against T cell and non-T cell (Dump) surface markers, activation markers and memory markers (antibody details in Table 4). Viability dye was used at 1:1000 dilution, antibodies were used at a final dilution of 1:100 (activation markers) and 1:200 (other extracellular markers). […] Gates were set based on unstimulated and PHA-L stimulated negative and positive controls, respectively. Antigen-specific AIM^+ and non-specific control AIM^− CD4^+ T cells from Day 14 samples and naïve (CD45RA^+CCR7^+), central memory (CD45RA^−CCR7^+, TCM) and effector memory (CD45RA^−CCR7^−, TEM) CD4^+ T cells from Day 0 PBMCs were sorted into HEPES-containing buffer (PBS with 2% FBS and 0.025 M HEPES) using BD FACSAria flow cytometry sorters. Acquired data was analyzed with FlowJo software.
Genomic DNA was extracted from sorted cells using QIAamp DNA Micro Kit (QIAGEN) and sent to Adaptive Biotechnologies for survey-level TCRβ sequencing (depth ˜60,000 reads) using their established immunoSEQ platform^7. Briefly, highly variable CDR3 regions on somatically rearranged human TCRβ chains were amplified with a two-step multiplex PCR approach using optimized set of primers that target the VDJ region spanning each unique CDR3B. A synthetic repertoire containing all possible V/J templates is used as a built-in control to quantify and correct PCR amplification biases. Processing of raw Illumina sequence reads, filtering, demultiplexing, clustering and mapping of CDR3 sequences and annotation of VDJ genes using IMGT database sequences were performed at Adaptive Biotechnologies and made available for download and analysis.

[3] = target: 28 common HLA alleles (27 from the reference set plus DPB1*03:01), purified MHC molecules; experiment: competition assay, inhibition of radiolabeled ligand binding to purified HLA class II; bound = IC50 <1000 nM
[4] = Donor 2, PBMCs expanded 14 days and restimulated 24 h with APOB6
[5] = Donor 6, PBMCs expanded 14 days and restimulated 24 h with APOB6
[6] = Donor 1, PBMCs expanded 14 days and restimulated 24 h with APOB6
[7] = Donor 5, PBMCs expanded 14 days and restimulated 24 h with APOB6
[8] = Donor 4, PBMCs expanded 14 days and restimulated 24 h with APOB6
[9] = Donor 3, PBMCs expanded 14 days and restimulated 24 h with APOB6

No. of HLA-II alleles bound [1]: 24
Molecule: FLHYIFMENAFELPT [Peptide 3]

No. of HLA-II alleles bound [1]: 25
Molecule: QIHQYIMALREEYFD [Peptide 19]

No. of HLA-II alleles bound [1]: 20
Molecule: KIVSLIKNLLVALKD [Peptide 20]

No. of HLA-II alleles bound [1]: 21
Molecule: TLTAFGFASADLIEI [Peptide 2]
response with pan-HLA-DR blocking antibody (PBMCs; donor 1, HLA-DR alleles with strong binding affinities for the peptide): inhibited responses
immunogenicity under HLA-DR blockade (PBMCs; donor 2, DQ and DP binder alleles and DR non-binder alleles): remained unaffected

No. of HLA-II alleles bound [1]: 21
Molecule: YKKLRTSSFALNLPT [Peptide 16]

No. of HLA-II alleles bound [1]: 23
Molecule: GKIDFLNNYALFLSP [Peptide 14]

No. of HLA-II alleles bound [1]: 17
Molecule: LIINWLQEALSSASL [Peptide 11]

No. of HLA-II alleles bound [1]: 18
Molecule: VEFVTNMGIIIPDFA [Peptide 4]

No. of HLA-II alleles bound [1]: 23
Molecule: DKRLAAYLMLMRSPS [Peptide 1]

No. of HLA-II alleles bound [1]: 23
Molecule: RGLKLATALSLSNKF [Peptide 15]

Molecule: CASSWDRTKFGNQPQHF: TCRβ CDR3 clone, TCRBV19-01+TCRBJ01-05, Donor 2
Log10 Odds Ratio ([2]; Donor 2): 2.02
No. of clone-specific productive templates, AIM+ CD4+ T (Total 18591) [2, 4]: 268
No. of clone-specific productive templates, AIM− CD4+ T (Total 7206) [2, 4]: 1

No. of HLA-II alleles bound [1]: 21
Molecule: VGSKLIVAMSSWLQK [Peptide 5]

No. of HLA-II alleles bound [1]: 17
Molecule: LSQLQTYMIQFDQYI [Peptide 9]

No. of HLA-II alleles bound [1]: 18
Molecule: LEVLNFDFQANAQLS [Peptide 12]

Molecule: CSATGGTNEKLFF: TCRβ CDR3 clone, TCRBV20-X+TCRBJ01-04, Donor 6
Log10 Odds Ratio ([2]; Donor 6): 1.59
No. of clone-specific productive templates, AIM+ CD4+ T (Total 34927) [2, 5]: 500
No. of clone-specific productive templates, AIM− CD4+ T (Total 45364) [2, 5]: 17

Molecule: CASRGQRDTGELFF: TCRβ CDR3 clone, TCRBV19-01+TCRBJ02-02, Donor 1
Log10 Odds Ratio ([2]; Donor 1): 2.63
No. of clone-specific productive templates, AIM+ CD4+ T (Total 21697) [2, 6]: 367
No. of clone-specific productive templates, AIM− CD4+ T (Total 49956) [2, 6]: 2

Molecule: CASSQTALYSGNTIYF: TCRβ CDR3 clone, TCRBV19-01+TCRBJ01-03, Donor 5
Log10 Odds Ratio ([2]; Donor 5): 12.08
No. of clone-specific productive templates, AIM+ CD4+ T (Total 31354) [2, 7]: 777
No. of clone-specific productive templates, AIM− CD4+ T (Total 48987) [2, 7]: 0

Molecule: CSAREPHDTSTDTQYF: TCRβ CDR3 clone, TCRBV20-X+TCRBJ02-03, Donor 2
Log10 Odds Ratio ([2]; Donor 2): 11.98
No. of clone-specific productive templates, AIM+ CD4+ T (Total 18591) [2, 4]: 338
No. of clone-specific productive templates, AIM− CD4+ T (Total 7206) [2, 4]: 0

No. of HLA-II alleles bound [1]: 27
Molecule: QLYSKFLLKAEPLAF [Peptide 8]

No. of HLA-II alleles bound [1]: 21
Molecule: HVKHFVINLIGDFEV [Peptide 10]

Molecule: CASSFVDSPESYEQYF: TCRβ CDR3 clone, TCRBV12-X+TCRBJ02-07, Donor 1
Log10 Odds Ratio ([2]; Donor 1): 2.01
No. of clone-specific productive templates, AIM+ CD4+ T (Total 21697) [2, 6]: 486
No. of clone-specific productive templates, AIM− CD4+ T (Total 49956) [2, 6]: 11

Molecule: CASSIPQGSGSPLHF: TCRβ CDR3 clone, TCRBV05-06+TCRBJ01-06, Donor 6; top-ranked APOB6-specific rearrangement
Log10 Odds Ratio ([2]; Donor 6): 2.41
No. of clone-specific productive templates, AIM+ CD4+ T (Total 34927) [2, 5]: 9283
No. of clone-specific productive templates, AIM− CD4+ T (Total 45364) [2, 5]: 63

Molecule: CASSAMVEQPQHF: TCRβ CDR3 clone, TCRBV06-X+TCRBJ01-05, Donor 4
Log10 Odds Ratio ([2]; Donor 4): 0.55
No. of clone-specific productive templates, AIM+ CD4+ T (Total 25796) [2, 8]: 1709
No. of clone-specific productive templates, AIM− CD4+ T (Total 25928) [2, 8]: 503

Molecule: CASSEMGLNTDTQYF: TCRβ CDR3 clone, TCRBV06-01+TCRBJ02-03, Donor 4
Log10 Odds Ratio ([2]; Donor 4): 0.45
No. of clone-specific productive templates, AIM+ CD4+ T (Total 25796) [2, 8]: 1601
No. of clone-specific productive templates, AIM− CD4+ T (Total 25928) [2, 8]: 601

No. of HLA-II alleles bound [1]: 19
Molecule: KFTYLINYIQDEINT [Peptide 18]

No. of HLA-II alleles bound [1]: 23
Molecule: SLFFSAQPFEITAST [Peptide 13]

No. of HLA-II alleles bound [1]: 22
Molecule: HFSNVFRSVMAPFTM [Peptide 7]

Molecule: CASSLAGTGTNEQFF: TCRβ CDR3 clone, TCRBV05-01+TCRBJ02-01, Donor 1
Log10 Odds Ratio ([2]; Donor 1): 2.97
No. of clone-specific productive templates, AIM+ CD4+ T (Total 21697) [2, 6]: 396
No. of clone-specific productive templates, AIM− CD4+ T (Total 49956) [2, 6]: 1

Molecule: CASIRPGLNYGYTF: TCRβ CDR3 clone, TCRBV06-05+TCRBJ01-02, Donor 3
Log10 Odds Ratio ([2]; Donor 3): 1.08
No. of clone-specific productive templates, AIM+ CD4+ T (Total 16700) [2, 9]: 436
No. of clone-specific productive templates, AIM− CD4+ T (Total 21770) [2, 9]: 48

No. of HLA-II alleles bound [1]: 17
Molecule: ILFSYFQDLVITLPF [Peptide 17]

No. of HLA-II alleles bound [1]: 20
Molecule: IKHIYAISSAALSAS [Peptide 6]

Molecule: CASSPRGAVNTEAFF: TCRβ CDR3 clone, TCRBV07-09+TCRBJ01-01, Donor 4
Log10 Odds Ratio ([2]; Donor 4): 0.88
No. of clone-specific productive templates, AIM+ CD4+ T (Total 25796) [2, 8]: 950
No. of clone-specific productive templates, AIM− CD4+ T (Total 25928) [2, 8]: 130

Molecule: CASRKQGLGYTEAFF: TCRβ CDR3 clone, TCRBV02-01+TCRBJ01-01, Donor 4
Log10 Odds Ratio ([2]; Donor 4): 2.45
No. of clone-specific productive templates, AIM+ CD4+ T (Total 25796) [2, 8]: 544
No. of clone-specific productive templates, AIM− CD4+ T (Total 25928) [2, 8]: 2

Molecule: CASSLALGTGDTEAFF: TCRβ CDR3 clone, TCRBV05-01+TCRBJ01-01, Donor 1
Log10 Odds Ratio ([2]; Donor 1): 2.98
No. of clone-specific productive templates, AIM+ CD4+ T (Total 21697) [2, 6]: 410
No. of clone-specific productive templates, AIM− CD4+ T (Total 49956) [2, 6]: 1

Molecule: CASSIRPNDEQFF: TCRβ CDR3 clone, TCRBV09-01+TCRBJ02-01, Donor 1
Log10 Odds Ratio ([2]; Donor 1): 2.93
No. of clone-specific productive templates, AIM+ CD4+ T (Total 21697) [2, 6]: 366
No. of clone-specific productive templates, AIM− CD4+ T (Total 49956) [2, 6]: 1

Molecule: CASRETGGAGELFF: TCRβ CDR3 clone, TCRBV06-05+TCRBJ02-02, Donor 6
Log10 Odds Ratio ([2]; Donor 6): 2.71
No. of clone-specific productive templates, AIM+ CD4+ T (Total 34927) [2, 5]: 393
No. of clone-specific productive templates, AIM− CD4+ T (Total 45364) [2, 5]: 1

Molecule: CASSKVNEKLFF: TCRβ CDR3 clone, TCRBV03-01/03-02+TCRBJ01-04, Donor 2
Log10 Odds Ratio ([2]; Donor 2): 1.19
No. of clone-specific productive templates, AIM+ CD4+ T (Total 18591) [2, 4]: 361
No. of clone-specific productive templates, AIM− CD4+ T (Total 7206) [2, 4]: 9

No. of HLA-II alleles bound [3]: 21 alleles
Molecule: HVKHFVINLIGDFEV [APOB peptide 10 (…)]

No. of HLA-II alleles bound [3]: 21 alleles
Molecule: VGSKLIVAMSSWLQK [APOB peptide 5 (…)]

No. of HLA-II alleles bound [3]: 23 alleles
Molecule: SLFFSAQPFEITAST [APOB peptide 13 (…)]

No. of HLA-II alleles bound [3]: 24 alleles
Molecule: FLHYIFMENAFELPT [APOB peptide 3 (…)]

No. of HLA-II alleles bound [3]: 19 alleles
Molecule: KFTYLINYIQDEINT [APOB peptide 18 (…)]

No. of HLA-II alleles bound [3]: 18 alleles
Molecule: LEVLNFDFQANAQLS [APOB peptide 12 (…)]

No. of HLA-II alleles bound [3]: 23 alleles
Molecule: DKRLAAYLMLMRSPS [APOB peptide 1 (…)]

No. of HLA-II alleles bound [3]: 20 alleles
Molecule: IKHIYAISSAALSAS [APOB peptide 6 (…)]

No. of HLA-II alleles bound [3]: 21 alleles
Molecule: YKKLRTSSFALNLPT [APOB peptide 16 (…)]

No. of HLA-II alleles bound [3]: 18 alleles
Molecule: VEFVTNMGIIIPDFA [APOB peptide 4 (…)]

No. of HLA-II alleles bound [3]: 17 alleles
Molecule: ILFSYFQDLVITLPF [APOB peptide 17 (…)]

No. of HLA-II alleles bound [3]: 25 alleles
Molecule: QIHQYIMALREEYFD [APOB peptide 19 (…)]

No. of HLA-II alleles bound [3]: 20 alleles
Molecule: KIVSLIKNLLVALKD [APOB peptide 20 (…)]

No. of HLA-II alleles bound [3]: 22 alleles
Molecule: HFSNVFRSVMAPFTM [APOB peptide 7 (…)]

No. of HLA-II alleles bound [3]: 27 alleles
Molecule: QLYSKFLLKAEPLAF [APOB peptide 8 (…)]

No. of HLA-II alleles bound [3]: 17 alleles
Molecule: LSQLQTYMIQFDQYI [APOB peptide 9 (…)]

No. of HLA-II alleles bound [3]: 23 alleles
Molecule: GKIDFLNNYALFLSP [APOB peptide 14 (…)]

No. of HLA-II alleles bound [3]: 21 alleles
Molecule: TLTAFGFASADLIEI [APOB peptide 2 (…)]

No. of HLA-II alleles bound [3]: 17 alleles
Molecule: LIINWLQEALSSASL [APOB peptide 11 (…)]
